Values of other authors as cited in article PMC8228323, “Biodegradation of L-Valine Alkyl Ester Ibuprofenates by Bacterial Cultures” (Materials, 2021).

How the values were obtained:
[1] = set-up: method as in PMID 20111784; conditions: CO2 released, 0 to 28 days
microorganisms = test system: microorganisms; set-up: method as in PMID 22644530, PMID 23262323, doi:10.4314/jasem.v25i3.5, PMID 33724810, PMID 33601200; conditions: at the applied concentration

Compound | Degree of biodegradability [1] | Inhibition of microbial activity (microorganisms)
CCCCCCCCOS(=O)(=O)[O-].CCCCOCCOC(=O)Cn1cc[n+](C)c1 [[BuOCH2CH2OCOCH2min][OctOSO3]] | more than 60% | 
CCCCCCCCOS(=O)(=O)[O-].CCOCCOC(=O)Cn1cc[n+](C)c1 [[EtOCH2CH2OCOCH2min][OctOSO3]] | 59% | 
CCCCCCCCCCCCOS(=O)(=O)[O-].[Na+] [SDS, sodium dodecyl sulfate] | about 95% | 
CC(C)Cc1ccc(C(C)C(=O)O)cc1 (centres unmarked) [IBU, ibuprofen] |  | did not inhibit the microbial activity
CCCCCCCCOS(=O)(=O)[O-].CCCOCCOC(=O)Cn1cc[n+](C)c1 [[PrOCH2CH2OCOCH2min][OctOSO3]] | more than 60% | 
